Results taken from ChEMBL document CHEMBL4507270 (2021).
The source made the active and inactive calls. The calls are words filed in the database; no cut-off is given here.

How the values were obtained:
[1] = target: Ribosomal protein S6 kinase alpha-3 (Homo sapiens) (UniProt P51812)
[2] = target: D(3) dopamine receptor (Homo sapiens) (UniProt P35462); details: Compound concentration 10.0 uM
[3] = target: Beta-3 adrenergic receptor (Homo sapiens, UniProt P13945); assay: GPCRScan assay: inhibition of Beta3; parameters: radioligand conc. used [nm] 0.2 – 0.5, parental cells HEK Flp-In
[4] = target: Histamine H4 receptor (Homo sapiens) (UniProt Q9H3N8); details: Compound concentration 10.0 uM
[5] = target: Platelet-derived growth factor receptor beta (Homo sapiens, UniProt P09619); assay: Bayer in-house kinase assay with PDGFRB
[6] = target: Histamine H1 receptor (Homo sapiens) (UniProt P35367); details: Compound concentration 10.0 uM
Angiopoietin-1 receptor [7] = target: T1, Angiopoietin-1 receptor (Homo sapiens, UniProt Q02763); assay: Bayer in-house kinase assay with TEK
[8] = target: Histamine H3 receptor (Homo sapiens) (UniProt Q9Y5N1); details: Compound concentration 10.0 uM
[9] = target: Vascular endothelial growth factor receptor 2 (Homo sapiens, UniProt P35968); assay: KINOMEScan (DiscoveRx Corp) with KDR
[10] = target: Serine/threonine-protein kinase Nek10 (Homo sapiens) (UniProt Q6ZWH5)
[11] = target: Fibroblast growth factor receptor 3 (Homo sapiens, UniProt P22607); assay: Bayer in-house kinase assay with […]
[12] = target: Tyrosine-protein kinase receptor UFO (Homo sapiens) (UniProt P30530)
[13] = target: Vascular endothelial growth factor receptor 3 (Homo sapiens, UniProt P35916); assay: Bayer in-house kinase assay with FLT4
[14] = target: Fibroblast growth factor receptor 1 (Homo sapiens, UniProt P11362); assay: Bayer in-house kinase assay with FGFR1
[15] = target: Rho-associated protein kinase 1 (Homo sapiens) (UniProt Q13464)
[16] = target: T2, Tyrosine-protein kinase receptor Tie-1 (Homo sapiens, UniProt P35590); details: Compound concentration 1000.0 nM
[17] = target: Epithelial discoidin domain-containing receptor 1 (Homo sapiens, UniProt Q08345); assay: Inhibition of DDR1 at compound concentration of 10.0 uM using the ScanMax (DiscoverX)
[18] = target: T3, Discoidin domain-containing receptor 2 (Homo sapiens, UniProt Q16832); assay: Inhibition of DDR2 at compound concentration of 10.0 uM using the ScanMax (DiscoverX)
T3 sequence (Q16832 whole entry): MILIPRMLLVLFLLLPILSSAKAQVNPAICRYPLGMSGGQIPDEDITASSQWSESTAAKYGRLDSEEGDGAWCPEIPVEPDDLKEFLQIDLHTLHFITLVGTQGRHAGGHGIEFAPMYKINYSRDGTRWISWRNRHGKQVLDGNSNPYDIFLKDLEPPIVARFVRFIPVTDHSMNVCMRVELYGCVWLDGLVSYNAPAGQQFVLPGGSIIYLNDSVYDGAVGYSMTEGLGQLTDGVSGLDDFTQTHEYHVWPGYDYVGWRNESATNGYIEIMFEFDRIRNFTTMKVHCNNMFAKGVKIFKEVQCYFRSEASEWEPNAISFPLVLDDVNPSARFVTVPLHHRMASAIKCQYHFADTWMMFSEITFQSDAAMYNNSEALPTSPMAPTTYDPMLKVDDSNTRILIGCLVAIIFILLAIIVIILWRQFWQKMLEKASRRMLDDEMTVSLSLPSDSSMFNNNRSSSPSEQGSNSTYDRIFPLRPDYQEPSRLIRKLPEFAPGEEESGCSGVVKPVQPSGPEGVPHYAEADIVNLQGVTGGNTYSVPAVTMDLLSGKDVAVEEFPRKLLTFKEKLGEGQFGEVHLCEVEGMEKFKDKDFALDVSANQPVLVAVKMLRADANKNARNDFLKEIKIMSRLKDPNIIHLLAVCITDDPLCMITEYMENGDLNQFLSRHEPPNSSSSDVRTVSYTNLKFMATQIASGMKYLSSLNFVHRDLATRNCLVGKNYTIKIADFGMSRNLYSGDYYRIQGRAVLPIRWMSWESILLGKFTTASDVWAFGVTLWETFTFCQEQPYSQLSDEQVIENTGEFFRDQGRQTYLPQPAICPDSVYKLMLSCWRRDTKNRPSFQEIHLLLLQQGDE

[19] = target: GABA-A receptor; anion channel (Rattus norvegicus) (UniProt O09028+P15431+P18506+P18508+P19969+P20236+P23574+P23576+P28471+P28473+P30191+P62813+P63079+P63138+Q91ZM7+Q9ES14); details: Compound concentration 10.0 uM
[20] = target: 5-hydroxytryptamine receptor 2C (Homo sapiens, UniProt P28335); assay: GPCRScan assay: inhibition of 5-HT2C; parameters: radioligand conc. used [nm] 1.0 – 2.5, parental cells HEK T
[21] = target: Serine/threonine-protein kinase 10 (Homo sapiens, UniProt O94804); assay: NanoBRET assay (SGC Frankfurt) with STK10
[22] = target: Sodium-dependent noradrenaline transporter (Homo sapiens, UniProt P23975); assay: GPCRScan assay: inhibition of NET; parameters: radioligand conc. used [nm] 1.3 – 5.0, parental cells stable HEK
[23] = target: 5-hydroxytryptamine receptor 6 (Homo sapiens) (UniProt P50406); details: Compound concentration 10.0 uM
Angiopoietin-1 receptor [24] = target: T1, Angiopoietin-1 receptor; assay: KINOMEScan (DiscoveRx Corp) with TEK
[25] = target: Delta-type opioid receptor (Homo sapiens, UniProt P41143); assay: GPCRScan assay: inhibition of DOR; parameters: radioligand conc. used [nm] 1.0 – 2.0, parental cells stable HEK
Mu-type opioid receptor = Mu-type opioid receptor (Homo sapiens, UniProt P35372); assay: GPCRScan assay: inhibition of MOR; parameters: radioligand conc. used [nm] 1.0 – 2.0, parental cells stable HEK
D(2) dopamine receptor = D(2) dopamine receptor (Homo sapiens, UniProt P14416); assay: GPCRScan assay: inhibition of D2; parameters: radioligand conc. used [nm] 0.4 – 1.0, parental cells stable fibroblast
[26] = target: 5-hydroxytryptamine receptor 2B (Homo sapiens, UniProt P41595); assay: GPCRScan assay: inhibition of 5-HT2B; parameters: radioligand conc. used [nm] 1.0 – 2.0, parental cells stable HEK
[27] = target: D(1B) dopamine receptor (Homo sapiens) (UniProt P21918); details: Compound concentration 10.0 uM
[28] = target: T2, Tyrosine-protein kinase receptor Tie-1; assay: NanoBRET assay (SGC Frankfurt) with TIE1
[29] = Compound concentration 100.0 nM
[30] = Compound concentration 1000.0 nM

T2 sequence (P35590 whole entry, the tested form may be a part): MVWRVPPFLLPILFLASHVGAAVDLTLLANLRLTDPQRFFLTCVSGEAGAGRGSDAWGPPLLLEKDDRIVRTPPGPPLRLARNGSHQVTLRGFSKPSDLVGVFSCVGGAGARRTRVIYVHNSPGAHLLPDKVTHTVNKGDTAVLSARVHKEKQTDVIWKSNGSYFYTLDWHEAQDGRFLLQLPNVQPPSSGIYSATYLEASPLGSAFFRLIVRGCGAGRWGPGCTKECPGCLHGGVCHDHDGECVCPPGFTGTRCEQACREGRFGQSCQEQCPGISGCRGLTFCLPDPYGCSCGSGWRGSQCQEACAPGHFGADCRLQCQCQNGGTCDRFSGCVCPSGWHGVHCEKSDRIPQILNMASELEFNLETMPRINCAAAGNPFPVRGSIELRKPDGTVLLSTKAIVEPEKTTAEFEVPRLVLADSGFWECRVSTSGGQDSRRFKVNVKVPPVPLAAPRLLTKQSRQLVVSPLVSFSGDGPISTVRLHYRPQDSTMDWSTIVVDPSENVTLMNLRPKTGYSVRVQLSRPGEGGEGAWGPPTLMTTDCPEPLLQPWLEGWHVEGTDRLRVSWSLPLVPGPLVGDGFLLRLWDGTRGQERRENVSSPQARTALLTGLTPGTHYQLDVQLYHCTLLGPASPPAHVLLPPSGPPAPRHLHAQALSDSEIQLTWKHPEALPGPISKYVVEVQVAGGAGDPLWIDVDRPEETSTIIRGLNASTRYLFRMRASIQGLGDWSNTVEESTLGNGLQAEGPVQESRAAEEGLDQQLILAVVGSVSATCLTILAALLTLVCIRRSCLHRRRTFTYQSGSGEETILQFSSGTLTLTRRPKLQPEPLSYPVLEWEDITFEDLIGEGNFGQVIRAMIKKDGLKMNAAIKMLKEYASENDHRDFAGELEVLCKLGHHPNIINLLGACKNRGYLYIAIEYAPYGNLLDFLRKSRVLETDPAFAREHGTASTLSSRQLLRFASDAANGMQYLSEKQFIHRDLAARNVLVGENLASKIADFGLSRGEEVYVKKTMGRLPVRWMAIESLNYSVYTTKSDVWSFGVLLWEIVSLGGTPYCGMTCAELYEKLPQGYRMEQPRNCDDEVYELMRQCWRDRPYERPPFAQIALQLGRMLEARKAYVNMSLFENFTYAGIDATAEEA
Beta-3 adrenergic receptor, sequence (P13945 whole entry): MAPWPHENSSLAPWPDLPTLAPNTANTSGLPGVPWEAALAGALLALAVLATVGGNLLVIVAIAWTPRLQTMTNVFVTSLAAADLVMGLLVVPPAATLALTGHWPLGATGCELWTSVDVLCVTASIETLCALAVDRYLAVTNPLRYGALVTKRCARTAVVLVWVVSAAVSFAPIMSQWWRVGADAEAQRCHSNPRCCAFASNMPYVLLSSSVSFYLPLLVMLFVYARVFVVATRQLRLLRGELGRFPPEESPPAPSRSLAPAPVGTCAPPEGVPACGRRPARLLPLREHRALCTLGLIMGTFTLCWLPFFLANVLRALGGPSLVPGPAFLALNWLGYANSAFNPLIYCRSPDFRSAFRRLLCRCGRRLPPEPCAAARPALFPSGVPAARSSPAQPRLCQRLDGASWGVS
Ribosomal protein S6 kinase alpha-3 (Homo sapiens), sequence (P51812 whole entry): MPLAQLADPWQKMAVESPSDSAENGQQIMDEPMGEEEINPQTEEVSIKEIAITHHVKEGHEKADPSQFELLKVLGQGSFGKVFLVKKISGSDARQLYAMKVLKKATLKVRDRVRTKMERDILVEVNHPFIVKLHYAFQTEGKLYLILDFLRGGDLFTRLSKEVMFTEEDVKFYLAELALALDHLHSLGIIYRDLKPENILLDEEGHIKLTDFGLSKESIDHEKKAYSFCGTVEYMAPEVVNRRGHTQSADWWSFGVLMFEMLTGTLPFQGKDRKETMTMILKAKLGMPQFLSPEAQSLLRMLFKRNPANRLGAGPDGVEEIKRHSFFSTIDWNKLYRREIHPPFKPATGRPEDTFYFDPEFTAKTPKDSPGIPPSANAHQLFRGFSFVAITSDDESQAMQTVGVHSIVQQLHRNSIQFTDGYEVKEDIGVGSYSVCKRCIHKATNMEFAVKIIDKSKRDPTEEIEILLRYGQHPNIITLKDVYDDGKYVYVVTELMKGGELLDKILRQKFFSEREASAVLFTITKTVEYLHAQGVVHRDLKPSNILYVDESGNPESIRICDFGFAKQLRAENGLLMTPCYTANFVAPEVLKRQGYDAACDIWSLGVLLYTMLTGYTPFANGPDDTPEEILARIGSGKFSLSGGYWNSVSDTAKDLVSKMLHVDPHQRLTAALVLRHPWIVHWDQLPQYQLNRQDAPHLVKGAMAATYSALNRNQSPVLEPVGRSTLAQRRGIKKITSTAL
Serine/threonine-protein kinase Nek10 (Homo sapiens), sequence (Q6ZWH5 whole entry): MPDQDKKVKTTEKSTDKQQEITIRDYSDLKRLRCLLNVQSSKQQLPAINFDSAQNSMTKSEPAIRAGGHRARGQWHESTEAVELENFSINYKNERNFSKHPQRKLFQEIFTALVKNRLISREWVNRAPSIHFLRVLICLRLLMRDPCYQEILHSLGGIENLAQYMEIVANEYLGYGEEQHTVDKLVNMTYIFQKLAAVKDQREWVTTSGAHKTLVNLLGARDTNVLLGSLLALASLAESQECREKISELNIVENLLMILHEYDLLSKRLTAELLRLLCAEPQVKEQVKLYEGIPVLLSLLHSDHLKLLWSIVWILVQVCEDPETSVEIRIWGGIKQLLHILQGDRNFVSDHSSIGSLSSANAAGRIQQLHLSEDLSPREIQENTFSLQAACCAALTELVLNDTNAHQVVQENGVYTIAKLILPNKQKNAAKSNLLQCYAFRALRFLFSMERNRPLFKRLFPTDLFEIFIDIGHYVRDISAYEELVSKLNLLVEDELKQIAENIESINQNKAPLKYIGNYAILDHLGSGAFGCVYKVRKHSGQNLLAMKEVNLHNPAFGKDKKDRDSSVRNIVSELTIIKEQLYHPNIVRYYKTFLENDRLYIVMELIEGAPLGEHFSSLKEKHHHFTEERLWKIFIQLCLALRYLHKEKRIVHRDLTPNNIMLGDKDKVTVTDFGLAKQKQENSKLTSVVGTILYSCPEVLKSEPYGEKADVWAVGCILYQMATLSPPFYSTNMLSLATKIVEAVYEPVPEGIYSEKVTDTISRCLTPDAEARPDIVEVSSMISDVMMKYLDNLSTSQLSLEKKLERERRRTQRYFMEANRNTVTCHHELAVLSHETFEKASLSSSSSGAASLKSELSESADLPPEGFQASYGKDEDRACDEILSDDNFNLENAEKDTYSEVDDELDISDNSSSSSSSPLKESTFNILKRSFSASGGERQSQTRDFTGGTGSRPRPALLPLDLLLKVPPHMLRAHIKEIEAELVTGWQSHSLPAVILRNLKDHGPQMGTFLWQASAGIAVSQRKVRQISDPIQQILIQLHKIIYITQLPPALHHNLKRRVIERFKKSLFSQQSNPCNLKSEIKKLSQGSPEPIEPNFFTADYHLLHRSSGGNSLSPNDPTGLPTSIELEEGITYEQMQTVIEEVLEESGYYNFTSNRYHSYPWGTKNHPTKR
Rho-associated protein kinase 1 (Homo sapiens), sequence (Q13464 2-1354 limits assumed): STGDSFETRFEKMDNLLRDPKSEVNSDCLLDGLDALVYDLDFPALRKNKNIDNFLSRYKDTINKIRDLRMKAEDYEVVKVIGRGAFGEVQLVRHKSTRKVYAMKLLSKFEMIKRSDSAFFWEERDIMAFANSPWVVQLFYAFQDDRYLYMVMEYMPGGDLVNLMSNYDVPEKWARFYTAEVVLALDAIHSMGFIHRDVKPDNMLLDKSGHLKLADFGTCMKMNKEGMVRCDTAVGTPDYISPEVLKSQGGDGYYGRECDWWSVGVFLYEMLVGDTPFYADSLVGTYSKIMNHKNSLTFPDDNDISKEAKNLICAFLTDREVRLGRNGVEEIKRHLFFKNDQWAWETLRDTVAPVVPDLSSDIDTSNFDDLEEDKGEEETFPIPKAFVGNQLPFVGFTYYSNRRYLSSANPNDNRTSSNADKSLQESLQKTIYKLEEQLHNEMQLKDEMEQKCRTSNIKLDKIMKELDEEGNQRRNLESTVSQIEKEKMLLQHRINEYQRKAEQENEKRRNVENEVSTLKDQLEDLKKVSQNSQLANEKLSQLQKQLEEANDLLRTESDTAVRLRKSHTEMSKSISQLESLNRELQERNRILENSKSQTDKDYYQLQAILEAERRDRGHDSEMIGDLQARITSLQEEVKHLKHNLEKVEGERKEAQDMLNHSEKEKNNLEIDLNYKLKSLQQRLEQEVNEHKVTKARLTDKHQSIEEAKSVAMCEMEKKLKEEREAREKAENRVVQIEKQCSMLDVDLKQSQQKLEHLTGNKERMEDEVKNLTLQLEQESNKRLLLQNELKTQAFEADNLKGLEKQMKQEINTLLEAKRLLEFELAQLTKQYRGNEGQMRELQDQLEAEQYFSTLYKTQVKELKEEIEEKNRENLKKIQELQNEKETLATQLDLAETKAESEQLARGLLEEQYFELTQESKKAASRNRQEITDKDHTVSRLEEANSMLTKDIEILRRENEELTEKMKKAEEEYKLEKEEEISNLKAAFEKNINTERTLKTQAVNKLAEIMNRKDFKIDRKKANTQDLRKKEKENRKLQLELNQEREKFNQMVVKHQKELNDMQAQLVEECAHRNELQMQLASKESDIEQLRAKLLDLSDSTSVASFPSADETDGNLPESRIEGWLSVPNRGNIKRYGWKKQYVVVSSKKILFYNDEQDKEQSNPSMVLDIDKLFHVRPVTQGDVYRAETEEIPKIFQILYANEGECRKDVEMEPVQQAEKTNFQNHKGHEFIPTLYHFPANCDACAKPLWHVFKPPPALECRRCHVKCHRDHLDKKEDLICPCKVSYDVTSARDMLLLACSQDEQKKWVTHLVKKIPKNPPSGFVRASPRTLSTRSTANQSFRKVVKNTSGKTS

SMILES: Cc1cc(C)c(-n2ccn3nc(-c4cccnc4)cc23)cc1NC(=O)c1cc(C#N)cc(S(F)(F)(F)(F)F)c1 [BAY-826]
- residual activity [1, 29]: 84.4%
- inhibition [2]: -5.85%
- Ki ([3]; read-out: Ki): 7.1 µM
- Ki ([3]; read-out: pKi (converted)): 6.68 µM
- inhibition [4]: 11.9%
- IC50 [5]: > 20 µM (not active)
- inhibition [6]: 25.3%
- IC50 (Angiopoietin-1 receptor [7]): 0.00045 µM (active)
- inhibition [8]: -5.88%
- Kd [9]: 1.6 µM (not active)
- residual activity [10, 29]: 100%
- IC50 [11]: > 10 µM (not active)
- residual activity [12, 29]: 80.5%
- IC50 [13]: 0.44 µM (not active)
- IC50 [14]: > 10 µM (not active)
- residual activity [15, 29]: 74.9%

SMILES: Cc1cc(NC(=O)c2cccc(S(F)(F)(F)(F)F)c2)cc(-n2ccn3nc(-c4cccnc4)cc23)c1 [BAY-309]
- residual activity [16]: 34.2%
- residual activity [1, 30]: 66.6%
- Kd [17]: 0.0021 µM (active)
- Kd [18]: 0.063 µM (not active)
- inhibition [19]: 33.3%
- Ki [20]: 4.86 µM
- EC50 [21]: 3.2 µM (not active)
- IC50 [21]: > 10 µM (not active)
- Ki [22]: 10 µM
- inhibition [23]: 5.64%
- Kd (Angiopoietin-1 receptor [24]): > 20 µM (not active)
- residual activity [10, 30]: 37.6%
- residual activity [12, 30]: 100%
- Ki [25]: 1.73 µM
- residual activity [15, 30]: 74.8%
- Ki (Mu-type opioid receptor): 6.99 µM
- Ki (D(2) dopamine receptor): 10 µM
- Ki [26]: 2.15 µM
- inhibition [27]: 34.9%
- EC50 [28]: 2.6 µM (not active)
- IC50 [28]: 0.13 µM (not active)
